In patent US9193695B2, “1, 2, 4-triazolone derivative and use thereof as an antagonist on the arginine-vasopressin 1B receptor” (TAISHO PHARMACEUTICAL CO., LTD., priority 2010, dated 2015):
pIC50: −log10 of the molar value.

molecular target: T1, Human V1b receptor (Homo sapiens, UniProt P47901); experiment: Binding test for V1b receptor ([3H]AVP displacement, crude membrane preparation); parameters: expressed in transfected cells; host or cells: 293FT cells (Invitrogen), transient expression; crude membrane preparation; conditions: [3H]AVP 0.4 to 1 nmol/L; membranes of 293FT cells transiently expressing human V1b receptor; room temperature, 60 minutes
T1 sequence (P47901 1-424): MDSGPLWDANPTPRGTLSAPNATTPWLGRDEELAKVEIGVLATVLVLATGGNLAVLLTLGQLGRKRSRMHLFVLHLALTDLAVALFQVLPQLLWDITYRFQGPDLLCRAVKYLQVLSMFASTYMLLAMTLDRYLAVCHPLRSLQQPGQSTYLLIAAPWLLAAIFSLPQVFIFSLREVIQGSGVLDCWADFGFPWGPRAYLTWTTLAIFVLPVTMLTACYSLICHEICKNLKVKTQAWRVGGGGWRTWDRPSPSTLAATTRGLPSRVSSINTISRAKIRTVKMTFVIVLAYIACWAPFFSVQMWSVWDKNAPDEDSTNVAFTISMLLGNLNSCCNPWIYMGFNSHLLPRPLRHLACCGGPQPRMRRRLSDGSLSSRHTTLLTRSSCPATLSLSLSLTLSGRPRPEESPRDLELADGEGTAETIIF
Protocol: Binding Test for V1b Receptor
Human V1b receptor was transiently expressed in 293FT cells (Invitrogen). The cells were collected and were homogenated in a 15 mmol/L tris-hydrochloric acid buffer (pH 7.4, containing 2 mmol/L magnesium chloride, 0.3 mmol/L ethylenediaminetetracetic acid, and 1 mmol/L glycol ether diaminetetraacetic acid). The resulting homogenate was centrifuged at 50,000×g at 4° C. for 20 minutes. The precipitate was resuspended in a 75 mmol/L tris-hydrochloric acid buffer (pH 7.4, containing 12.5 mmol/L magnesium chloride, 0.3 mmol/L ethylenediaminetetracetic acid, 1 mmol/L glycol ether diamine tetraacetic acid, and 250 mmol/L sucrose) to give a crude membrane preparation, which was stored at −80° C. until the binding test. In the binding test, the crude membrane preparation was diluted with a 50 mmol/L tris-hydrochloric acid buffer (pH 7.4, containing 10 mmol/L magnesium chloride and 0.1% bovine serum albumin), and test compound was serially diluted with DMSO. The diluted crude membrane preparation was incubated with each test compound (final concentration of 0.01 nmol/L to 1 μmol/L) and [^3H]AVP (final concentration: 0.4 to 1 nmol/L) at room temperature for 60 minutes. After the incubation, the mixture was suction filtered through a GF/C filter pretreated with 0.3% polyethyleneimine. The GF/C filter was dried, and a scintillator was added thereto. The radioactivity remaining on the filter was measured using TopCount (PerkinElmer Inc.). The radioactivity in the presence of 10 μmol/L of unlabeled AVP was defined as 0%, and the radioactivity in the absence of unlabeled AVP was defined as 100%. A dose-response curve was plotted from radioactivities in the presence of a test compound at various concentrations, and the 50% inhibitory concentration (IC50 value) of the compound was calculated.

| pIC50 | Structure (SMILES) |
| --- | --- |
| 7.02 | CC(CO)NC(=O)Cn1c(-c2cccc(Cl)c2)nn(-c2ccc(CCN3CCOCC3)cc2)c1=O (racemic) [Ad-20, 2-[3-(3-Chlorophenyl)-1-{4-[2-(morpholin-4-yl)ethyl]phenyl}-5-oxo-1,5-dihydro-4H-1,2,4-triazol-4-yl]-N-(1-hydroxypropan-2-yl)acetamide] |
| 7.25 | CC(C)NC(=O)Cn1c(-c2cccc(Cl)c2)nn(-c2ccc(CCN3CCC(O)C3)cc2)c1=O (stereo not shown) [Aa-6, 2-[3-(3-Chlorophenyl)-1-{4-[2-(3-hydroxypyrrolidin-1-yl)ethyl]phenyl}-5-oxo-1,5-dihydro-4H-1,2,4-triazol-4-yl]-N-(propan-2-yl)acetamide] |
| 7.43 | CC(C)NC(=O)Cn1c(-c2cccc(Cl)c2)nn(-c2ccc(CCN3CCCCC3)cc2)c1=O [Aa-11, 2-[3-(3-Chlorophenyl)-5-oxo-1-{4-[2-(piperidin-1-yl)ethyl]phenyl}-1,5-dihydro-4H-1,2,4-triazol-4-yl]-N-(propan-2-yl)acetamide] |
| 7.70 | CC(C)NC(=O)Cn1c(-c2cccc(Cl)c2)nn(-c2ccc(CCN3CCCOCC3)cc2)c1=O [Aa-13, 2-[3-(3-Chlorophenyl)-1-{4-[2-(1,4-oxazepan-4-yl)ethyl]phenyl}-5-oxo-1,5-dihydro-4H-1,2,4-triazol-4-yl]-N-(propan-2-yl)acetamide] |
| 7.10 | CC(C)NC(=O)Cn1c(-c2cccc(Cl)c2)nn(-c2ccc(CCN3CCOCC3)nc2)c1=O [Ac-2, 2-[3-(3-Chlorophenyl)-1-{6-[2-(morpholin-4-yl)ethyl]pyridin-3-yl}-5-oxo-1,5-dihydro-4H-1,2,4-triazol-4-yl]-N-(propan-2-yl)acetamide] |
| 8.60 | CC(C)(C)NC(=O)Cn1c(-c2cccc(Cl)c2)nn(-c2ccc(CCN3CCOCC3)cc2)c1=O [Ad-1, N-Tert-Butyl-2-[3-(3-chlorophenyl)-1-{4-[2-(morpholin-4-yl)ethyl]phenyl}-5-oxo-1,5-dihydro-4H-1,2,4-triazol-4-yl]acetamide] |
| 7.82 | CC(NC(=O)Cn1c(-c2cccc(Cl)c2)nn(-c2ccc(CCN3CCOCC3)cc2)c1=O)C(F)(F)F (stereo not shown) [Ad-2, 2-[3-(3-Chlorophenyl)-1-{4-[2-(morpholin-4-yl)ethyl]phenyl}-5-oxo-1,5-dihydro-4H-1,2,4-triazol-4-yl]-N-(1,1,1-trifluoropropan-2-yl)acetamide] |
| 7.26 | CC(C)(CO)NC(=O)Cn1c(-c2cccc(Cl)c2)nn(-c2ccc(CCN3CCOCC3)cc2)c1=O [Ad-3, 2-[3-(3-Chlorophenyl)-1-{4-[2-(morpholin-4-yl)ethyl]phenyl}-5-oxo-1,5-dihydro-4H-1,2,4-triazol-4-yl]-N-(1-hydroxy-2-methylpropan-2-yl)acetamide] |
| 6.99 | O=C(Cn1c(-c2cccc(Cl)c2)nn(-c2ccc(CCN3CCOCC3)cc2)c1=O)NC1CCC1 [Ad-4, 2-[3-(3-Chlorophenyl)-1-{4-[2-(morpholin-4-yl)ethyl]phenyl}-5-oxo-1,5-dihydro-4H-1,2,4-triazol-4-yl]-N-cyclobutylacetamide] |
| 7.01 | O=C(Cn1c(-c2cccc(Cl)c2)nn(-c2ccc(CCN3CCOCC3)cc2)c1=O)NC1COC1 [Ad-5, 2-[3-(3-Chlorophenyl)-1-{4-[2-(morpholin-4-yl)ethyl]phenyl}-5-oxo-1,5-dihydro-4H-1,2,4-triazol-4-yl]-N-(oxetan-3-yl)acetamide] |
| 7.21 | O=C(Cn1c(-c2cccc(Cl)c2)nn(-c2ccc(CCN3CCOCC3)cc2)c1=O)NCC1CC1 [Ad-6, 2-[3-(3-Chlorophenyl)-1-{4-[2-(morpholin-4-yl)ethyl]phenyl}-5-oxo-1,5-dihydro-4H-1,2,4-triazol-4-yl]-N-(cyclopropylmethyl)acetamide] |
| 8.42 | CC(C)NC(=O)Cn1c(-c2cccc(Cl)c2)nn(-c2ccc(CCN3CCOCC3)c(F)c2)c1=O [Ad-7, 2-[3-(3-Chlorophenyl)-1-{3-fluoro-4-[2-(morpholin-4-yl)ethyl]phenyl}-5-oxo-1,5-dihydro-4H-1,2,4-triazol-4-yl]-N-(propan-2-yl)acetamide] |
| 8.54 | CC(C)NC(=O)Cn1c(-c2cccc(Cl)c2)nn(-c2ccc(CC(C)N3CCOCC3)cc2)c1=O (stereo not shown) [Ad-13, 2-[3-(3-Chlorophenyl)-1-{4-[2-(morpholin-4-yl)propyl]phenyl}-5-oxo-1,5-dihydro-4H-1,2,4-triazol-4-yl]-N-(propan-2-yl)acetamide] |

Second part, the compound before the results:

| Structure (SMILES) | pIC50 |
| --- | --- |
| CC(C)NC(=O)Cn1c(-c2cccc(Cl)c2)nn(-c2ccc(CC(C)N3C4CCC3COC4)cn2)c1=O (single isomer, unassigned; (+)) [Ad-19-2] | 7.77 |
| CC(C)NC(=O)Cn1c(-c2cccc(Cl)c2)nn(-c2ccc(CC(C)N3C4CCC3COC4)cn2)c1=O (single isomer, unassigned; (-)) [Ad-19-1] | 9.23 |
| CC(C)NC(=O)Cn1c(-c2cccc(Cl)c2)nn(-c2ccc(CCN3CCC(CO)C3)cc2)c1=O (stereo not shown) [Aa-7, 2-[3-(3-Chlorophenyl)-1-(4-{2-[3-(hydroxymethyl)pyrrolidin-1-yl]ethyl}phenyl)-5-oxo-1,5-dihydro-4H-1,2,4-triazol-4-yl]-N-(propan-2-yl)acetamide] | 7.47 |
| CC(C)NC(=O)Cn1c(-c2cccc(Cl)c2)nn(-c2ccc(CCN3CC4CCC(C3)O4)cc2)c1=O [Aa-9, 2-[3-(3-Chlorophenyl)-1-{4-[2-(8-oxa-3-azabicyclo[3.2.1]oct-3-yl)ethyl]phenyl}-5-oxo-1,5-dihydro-4H-1,2,4-triazol-4-yl]-N-(propan-2-yl)acetamide] | 7.74 |
| CC(C)NC(=O)Cn1c(-c2cccc(Cl)c2)nn(-c2ccc(CCN3C4CCC3CC(O)C4)cn2)c1=O (stereo not shown) [Ab-4, 2-[3-(3-Chlorophenyl)-1-{5-[2-(3-hydroxy-8-azabicyclo[3.2.1]oct-8-yl)ethyl]pyridin-2-yl}-5-oxo-1,5-dihydro-4H-1,2,4-triazol-4-yl]-N-(propan-2-yl)acetamide] | 7.70 |
| CC(C)NC(=O)Cn1c(-c2cccc(Cl)c2)nn(-c2ccc(CCN3C4CCC3COC4)c(F)c2)c1=O [Ad-8, 2-[3-(3-Chlorophenyl)-1-{3-fluoro-4-[2-(3-oxa-8-azabicyclo[3.2.1]oct-8-yl)ethyl]phenyl}-5-oxo-1,5-dihydro-4H-1,2,4-triazol-4-yl]-N-(propan-2-yl)acetamide] | 8.82 |
| COc1cc(-n2nc(-c3cccc(Cl)c3)n(CC(=O)NC(C)C)c2=O)ccc1CCN1CCOCC1 [Ad-9, 2-[3-(3-Chlorophenyl)-1-{3-methoxy-4-[2-(morpholin-4-yl)ethyl]phenyl}-5-oxo-1,5-dihydro-4H-1,2,4-triazol-4-yl]-N-(propan-2-yl)acetamide] | 8.64 |
| COc1cc(-n2nc(-c3cccc(Cl)c3)n(CC(=O)NC(C)C)c2=O)ccc1CCN1C2CCC1COC2 [Ad-10, 2-[3-(3-Chlorophenyl)-1-{3-methoxy-4-[2-(3-oxa-8-azabicyclo[3.2.1]oct-8-yl)ethyl]phenyl}-5-oxo-1,5-dihydro-4H-1,2,4-triazol-4-yl]-N-(propan-2-yl)acetamide] | 8.89 |
| CC(C)NC(=O)Cn1c(-c2cccc(Cl)c2)nn(-c2ccc(CC(C)N3C4CCC3COC4)cc2)c1=O (stereo not shown) [Ad-14, 2-[3-(3-Chlorophenyl)-1-{4-[2-(3-oxa-8-azabicyclo[3.2.1]oct-8-yl)propyl]phenyl}-5-oxo-1,5-dihydro-4H-1,2,4-triazol-4-yl]-N-(propan-2-yl)acetamide] | 9.27 |
| CC(C)NC(=O)Cn1c(-c2cccc(Cl)c2)nn(-c2ccc(CC(C)N3CCOCC3)cn2)c1=O (stereo not shown) [Ad-15, 2-[3-(3-Chlorophenyl)-1-{5-[2-(morpholin-4-yl)propyl]pyridin-2-yl}-5-oxo-1,5-dihydro-4H-1,2,4-triazol-4-yl]-N-(propan-2-yl)acetamide] | 8.29 |
| CC(C)NC(=O)Cn1c(-c2cccc(Cl)c2)nn(-c2ccc(CC(C)N3C4CCC3COC4)cn2)c1=O (stereo not shown) [Ad-16, 2-[3-(3-Chlorophenyl)-1-{5-[2-(3-oxa-8-azabicyclo[3.2.1]oct-8-yl)propyl]pyridin-2-yl}-5-oxo-1,5-dihydro-4H-1,2,4-triazol-4-yl]-N-(propan-2-yl)acetamide] | 9.04 |
| CC(C)(C)NC(=O)Cn1c(-c2cccc(Cl)c2)nn(-c2ccc(CCN3CCOCC3)cn2)c1=O [Ad-17, N-Tert-Butyl-2-[3-(3-chlorophenyl)-1-{5-[2-(morpholin-4-yl)ethyl]pyridin-2-yl}-5-oxo-1,5-dihydro-4H-1,2,4-triazol-4-yl]acetamide] | 8.46 |
